The results in this text go back to patent US9649378B2, “Cancer methods” (priority 2010, dated 2017).

One assay has as its system FGFR1. The assay is described as follows: GST-OPCML pull-down assay. It counts as binding. Particulars: lysate of FGFR1 transfected cells or FGFR1 ECD protein. The procedure:
(§1) FIG. 2: OPCML interacts with the ECD of HER2 and FGFR1 but not EGFR. (A) (i): Co-IP was performed using protein extracts from SKOBS-V1.2, SKOBS-3.5 and BKS2.1 (SKOBS-3.5 and BKS2.1 express 3 and 20-fold more OPCML protein than normal physiological levels seen in OSE-C2). The goat polyclonal anti-OPCML (R & D Systems) was used in initial IP and products were detected on Western blots employing respective Abs for EGFR and HER2. The reciprocal IP with a monoclonal to ECD of HER2 (Calbiochem) is shown with successful immunoblotting for OPCML in the BKS2.1 stable line (expressing 20-fold more OPCML); (ii) Co-IP using the OPCML Ab in SKOBS-V1.2 and BKS2.1 lines were immunoblotted with anti-FGFR1αECD Ab. (B) A structural representation of GST-OPCML 1+2 and GST-OPCML 1+2+3 constructs with subsequent Western blot analysis of the fusion proteins. […] FGFR1 was also shown to bind GST-OPCML 1+2+3 and GST-OPCML 1+2 from the same pull-down with lysate from SK-OV-3 cells transiently transfected with FGFR1 cDNA.
(§2) FIG. 17: OPCML directly interacts with EphA2, FGFR1 and HER2, but not EGFR. (A) Immuno-precipitation (IP) for OPCML showing positive immunoblots for EphA2, FGFR1 and HER2. […] (B) A schematic representation of GST-OPCML domain 1-3 construct. (C). […] The presence of OPCML fusion proteins in these assays was verified by immunoblotting (IB, bottom panel).
(§3) Pull-down assays were performed using recombinant GST-OPCML fusion proteins bound to magnetic glutathione beads (Promega). Cell lysates prepared as for immunoprecipitation, proteins produced using TNT in vitro Rabbit reticulocyte lysate expression system (Promega) or expressed in bacteria were used analysed for interactions.

In the next assay the target is T1, EGFR (Homo sapiens, UniProt P00533).
T1 construct: pull-down experiments with either SK-OV-3 cell lysates (expressing HER2 and EGFR); endogenous in cells; host or cells: SK-OV-3
The assay is described as follows: GST-OPCML pull-down assay. It counts as binding. The note with it: SK-OV-3 cell lysate. Here is the method: as §1, §2, §3

The next assay deals with HER2. The assay is described as follows: GST-OPCML pull-down assay. It counts as binding. Particulars: SK-OV-3 lysate or in vitro translated HER2ECD. The procedure:
as §1, §2, §3

Assay [1] relates to phospho-ERK. The assay is described as follows: EGF induced phospho-ERK activation in OPCML transfected (BKS2.1) and control (SKOBS-V1.2) cells.
Protocol: (§4) (B) The effect of OPCML knockdown on the efficiency of lapatinib-induced pERK attenuation was analysed; densitometry of pERK signal (mean values of 3 independent experiments).
OPCML transfected and control cells were pre-incubated with lapatinib, trastuzumab, cituximab, erlotinib and gefitinib.
Assay [2] deals with OPCML. The assay can be described thus: induction of OPCML expression by growth factors in serum starved SK-OV-3 cells (qRT-PCR, Western). It counts as cell-based. Particulars: 50 ng/ml EGF. On the technique in general: In qPCR the cycle at which signal appears reflects the starting amount.
Protocol: Quantitative reverse-transcription PCR (qRT-PCR) analysis of gene expression was carried out on an Applied Biosystems 7900HT thermal cycler using SYBR green I technology. Premixed qPCR reagent, Platinum® Quantitative PCR SuperMix-UDG with ROX (Invitrogen, UK), was used for amplification. The expression of specific genes was normalized to the expression of the endogenous control gene HPRT1.
Assay [3] deals with OPCML. The assay can be described thus: induction of OPCML expression by growth factors in a panel of ovarian cancer cell lines. Format: cell-based. Particulars: data not shown. From the text: OPCML is a non-transmembrane, external lipid leaflet GPI-anchored protein, and is frequently lost from cells by somatic inactivation of the gene.
The subject of assay [4] is HER2 3+ recurrent disease (ovarian and breast cancer). The assay can be described thus: response to lapatinib in patients by RECIST criteria versus OPCML IHC. Format: in vivo, human. The arrangement: key: SD = stable disease; PR = partial response; PD = progressive disease. The note with it: individual cases 1-8, HER2 3+. The procedure:
We next tested whether OPCML could be used to predict response to lapatinib in ovarian and breast cancer. Histology was obtained by new biopsy of recurrent disease and TTP (time in months to progression from start of therapy until progression) assessed. Docetaxel and anthracyclines were administered for a maximum of 6 cycles and capecitabine was administered until disease progression or unacceptable toxicity. HER2 immunohistochemistry (IHC) was performed using the Dako Herceptest kit: 3+ in all cases.

The subject of assay [5] is phospho-ERK. The assay is described as follows: lapatinib-induced pERK attenuation after OPCML siRNA knockdown in OSE-C2 cells.
Protocol: as §4
Endogenous OPCML was knocked down in OSE-C2 cells by transient transfection of a specific pool of 3 siRNAs (Stealth knockdown-Invitrogen) using lipofectamine RNAiMAX reagent.
We then investigated whether siRNA knockdown of physiological OPCML expression in normal OSE-C2 cells could affect sensitivity to lapatinib.
[6] abbreviates: OPCML transfected versus control cells, EGF induced phospho-ERK.

Where “and” joins values, the source holds several entries; their conditions need not be identical. Equal values may be shown once. Read-outs that look alike come from different tables or passages of the source. Bounds are passed on as bounds.

Sequence of FGFR1 (P11362 22-376 limits assumed): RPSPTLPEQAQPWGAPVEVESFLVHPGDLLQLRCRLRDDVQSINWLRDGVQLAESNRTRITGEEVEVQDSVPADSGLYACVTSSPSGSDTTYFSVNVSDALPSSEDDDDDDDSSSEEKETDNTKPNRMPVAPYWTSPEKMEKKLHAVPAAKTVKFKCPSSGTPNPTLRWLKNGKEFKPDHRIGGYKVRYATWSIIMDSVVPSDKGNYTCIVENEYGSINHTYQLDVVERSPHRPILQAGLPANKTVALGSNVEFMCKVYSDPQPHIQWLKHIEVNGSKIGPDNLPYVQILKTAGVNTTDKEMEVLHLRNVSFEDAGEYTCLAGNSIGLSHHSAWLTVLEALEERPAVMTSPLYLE

On to “GST-OPCML D1+2: truncated OPCML ECD lacking Ig domain 3 fused to GST”, for which the “interaction with FGFR1” value with FGFR1 is “interacted with FGFR1”; in the assay with FGFR1 (listed as GST-OPCML 1+2), “shown to bind”.

For the compound “GST-OPCML D1+2+3: full length OPCML extracellular domain (Ig domains 1-3) fused to GST”, the “binding of EGFR” value with EGFR is listed as “no binding of EGFR”. Further, the “interaction with FGFR1” value in the assay with FGFR1 was “interacted with FGFR1”; in the assay on FGFR1 (listed as GST-OPCML 1+2+3), “shown to bind”; in the assay with FGFR1 (listed as GST-OPCML 1-3) it was “specific binding”; with FGFR1 (listed as GST-OPCML D1-3), “interacting specifically”. The “interaction with HER2” value in the assay on HER2 is reported as “interacted”; in the assay with HER2 (listed as GST-OPCML 1+2+3) it was “binding of HER2”; in the assay on HER2 (listed as GST-OPCML 1-3), “specific binding”; in the assay on HER2 (listed as GST-OPCML D1-3), “interacting specifically”.

Turning to “GST-OPCML D2+3: GST/OPCML domain fusion protein with domains 2 and 3”, the “interaction with FGFR1” value in the assay on FGFR1 is “interacted with FGFR1”.

`C#Cc1cccc(Nc2ncnc3cc(OCCOC)c(OCCOC)cc23)c1` [erlotinib]: in the assay with phospho-ERK [1], the OPCML mediated sensitization entry was “no sensitization”.

In the case of “EGF: human recombinant epidermal growth factor (Promega)”, the “time of maximal OPCML mRNA expression” value with OPCML [2] worked out at 30 min. In the assay on OPCML [3], the “ovarian cancer cell lines with rapid OPCML RNA and protein expression, of lines treated” value is 4/4.

Turning to `COc1cc2ncnc(Nc3ccc(F)c(Cl)c3)c2cc1OCCCN1CCOCC1` [gefitinib], in the assay with phospho-ERK [1] (setting [6]), the OPCML mediated sensitization result is listed as “no sensitization”.

Turning to `CS(=O)(=O)CCNCc1ccc(-c2ccc3ncnc(Nc4ccc(OCc5cccc(F)c5)c(Cl)c4)c3c2)o1.Cc1ccc(S(=O)(=O)O)cc1.Cc1ccc(S(=O)(=O)O)cc1.O` [lapatinib, N-(3 chloro-4-{[(3-fluorophenyl)methyl]oxy}phenyl)-6-[5-({[2(methylsulfonyl)ethyl]amino}methyl)-2-furanyl]-4-quinazolinamine bis (4 methylbenzenesulfonate) monohydrate], in assay [4], the Response to lapatinib result was “SD (2×) and PD (2×) and PR (4×)”. Besides, in the assay on phospho-ERK [5] (knockdown by siRNA to OPCML, P=0.0009), the “extent of inhibition of pERK signal” value was found to be 47%. Moreover, in the assay on phospho-ERK [5] (non-silencing (non-si) duplex, densitometry, mean of 3 experiments), the “reduction of EGF-induced pERK signal” value was determined as 70%. In addition, the “increase in sensitivity: reduction of effective concentration required to abolish the phospho-ERK signal” value with phospho-ERK [1] (BKS2.1 compared with SKOBS-V1.2, EGF 50 ng/ml, monohydrate) was > 10 fold and 10 fold. The OPCML mediated sensitization entry with phospho-ERK [1] (setting [6]) was “strong OPCML mediated sensitization”.
